Assay results published in the NIST ThermoML archive (doi:10.1021/acs.jced.6b00121).
± gives the expanded uncertainty stated by the source.

Experiment: xn = mol fraction of the nth substance listed
Conditions: 100 kPa, Liquid; for viscosity: Falling or rolling sphere viscometry; for mass density: Vibrating tube method

CCCCCCCCCCC [undecane] + CCCO
Conditions | mass density, 283.15 K [kg/m3] | mass density, 288.15 K [kg/m3] | mass density, 293.15 K [kg/m3] | mass density, 298.15 K [kg/m3] | viscosity, 283.15 K [mPa·s] | viscosity, 288.15 K [mPa·s] | viscosity, 293.15 K [mPa·s] | viscosity, 298.15 K [mPa·s] | viscosity, 303.15 K [mPa·s]
x1 = 0.1003 | 794.54 ± 1.6 | 790.63 ± 1.6 | 786.69 ± 1.6 | 782.72 ± 1.6 | 2.378 ± 0.03 | 2.104 ± 0.027 | 1.865 ± 0.024 | 1.655 ± 0.021 | 1.487 ± 0.019
x1 = 0.2009 | 782.93 ± 1.6 | 779.03 ± 1.6 | 775.1 ± 1.6 | 771.14 ± 1.5 | 2.098 ± 0.027 | 1.861 ± 0.024 | 1.656 ± 0.021 | 1.481 ± 0.019 | 1.332 ± 0.017
x1 = 0.3004 | 774.29 ± 1.6 | 770.41 ± 1.5 | 766.5 ± 1.5 | 762.56 ± 1.5 | 1.867 ± 0.024 | 1.69 ± 0.022 | 1.515 ± 0.019 | 1.357 ± 0.017 | 1.223 ± 0.015
x1 = 0.3997 | 767.69 ± 1.5 | 763.82 ± 1.5 | 759.92 ± 1.5 | 756 ± 1.5 | 1.722 ± 0.022 | 1.539 ± 0.02 | 1.382 ± 0.018 | 1.246 ± 0.016 | 1.129 ± 0.014
x1 = 0.4998 | 762.46 ± 1.5 | 758.6 ± 1.5 | 754.73 ± 1.5 | 750.83 ± 1.5 | 1.585 ± 0.02 | 1.426 ± 0.018 | 1.286 ± 0.017 | 1.166 ± 0.015 | 1.061 ± 0.014
x1 = 0.6005 | 758.08 ± 1.5 | 754.26 ± 1.5 | 750.41 ± 1.5 | 746.54 ± 1.5 | 1.482 ± 0.019 | 1.338 ± 0.017 | 1.214 ± 0.016 | 1.106 ± 0.014 | –
x1 = 0.6974 | 754.68 ± 1.5 | 750.86 ± 1.5 | 747.04 ± 1.5 | 743.2 ± 1.5 | 1.412 ± 0.018 | 1.28 ± 0.017 | 1.165 ± 0.015 | 1.065 ± 0.014 | –
x1 = 0.8 | 751.72 ± 1.5 | 747.96 ± 1.5 | 744.17 ± 1.5 | 740.37 ± 1.5 | 1.371 ± 0.018 | 1.246 ± 0.016 | 1.138 ± 0.015 | 1.044 ± 0.014 | –
x1 = 0.8963 | 749.45 ± 1.5 | 745.71 ± 1.5 | 741.96 ± 1.5 | 738.2 ± 1.5 | 1.356 ± 0.018 | 1.235 ± 0.016 | 1.13 ± 0.015 | 1.038 ± 0.014 | –
x1 = 1 | 747.78 ± 1.5 | 744.06 ± 1.5 | 740.35 ± 1.5 | 736.64 ± 1.5 | 1.371 ± 0.018 | 1.249 ± 0.017 | 1.145 ± 0.015 | 1.062 ± 0.014 | –
